Consider seven compounds from patent US20190111040A1, “IN VIVO AMELIORATION OF ENDOGENOUS ANTI-TUMOR AUTOANTIBODIES TARGETING SURFACE TUMOR ANTIGENS VIA LOW-DOSE P4N” (THE JOHNS HOPKINS UNIVERSITY, priority 2016, published 2019).

In assay [1] the test system is THP-1 cells. The assay is described as follows: Effect of inhibitors on Activin A-induced BAFF expression in THP-1 cells. The format is cell-based. Conditions: THP-1 cells treated with inhibitor and P4N. How it is done:
(§1) FIGS. 5A-5F depict the expression of Activin A/BAFF induced by P4N treatments. (A) P4N induced Activin A or BAFF expression in human PBMCs as determined by RT-PCR. S1-S5 display different individual blood samples collected from 5 different human donors; N, no treatment; P, P4N-treatment (3 μM). The change in Activin A and BAFF expression (mean of 5 patients) relative to the control (NC) is plotted as a histogram (B) The effect of increasing dosages of P4N for 12 h on mRNA and protein levels of Activin A or BAFF in THP-1 cells was analyzed by RT-PCR and ELISA. (C) The effect of 6 μM P4N on mRNA and protein levels of Activin A or BAFF in THP-1 cells was determined at a different time period. (D) The effect of different inhibitors on Activin A-induced BAFF expression was examined. The expression of BAFF mRNA in inhibitor-treated THP-1 cells was determined by RT-PCR, and (E) BAFF protein secretion was measured by ELISA. (F) The effect of THP-1 conditioned media on the proliferation of Raji cells and OKT3 hybridoma cells were determined. Media were harvested, in which THP-1 cells were pre-treated without inhibitor (2) or with SB431542 (3), A83-01 (4), SIS3 (5), SB203580 (6) or PD98059 (7) and then treated with P4N for 12 h. The results are expressed as % viable cells relative to the control (NC, media from untreated THP-1 cells). All values are the means of triplicate samples±SEM. The significant differences in the results of inhibitor and P4N-treated groups compared with the untreated group are indicated by ***P<0.001.
Reverse transcription PCR. Human PBMCs or THP-1 cells were treated with P4N, and then the mRNA expression of INHBA and BAFF in these cells was measured by reverse transcription PCR. Briefly, total cellular RNA was extracted with Trizol reagent (Invitrogen) and reverse-transcribed into cDNA using the Superscript RT-kit (Invitrogen). The cDNA of INHBA and BAFF were then amplified by PCR. GAPDH cDNA in the samples was used to normalize the loading amounts in each reaction. Finally, PCR products were resolved by electrophoresis on 2% agarose gels and visualized with ethidium bromide.

For the next assay, the system named is Raji or OKT3 cells. The assay is described as follows: Cell proliferation assay with THP-1-conditioned media. Particulars: conditioned medium from THP-1 cells treated with P4N and the inhibitor. The assay is classed as cell-based. On the procedure: as §1
Cell proliferation assay. Raji or OKT3 cells (1×10^4/well) were seeded and treated with THP-1-conditioned media. After 48 h the number of viable cells was determined by MTT assay. The indices of cell proliferation were calculated as previously described.

Assay [2] concerns THP-1 cells. As to the kind of experiment: TNF-α, IL-8 and Activin A ELISA in THP-1 cells with bestatin and P4N. The assay is classed as cell-based. Conditions: 10 μM bestatin 2 h, then 3 μM P4N. On the procedure:
FIGS. 6A-6E show P4N directly regulated LTA4H to induce monocyte inflammation. (A) P4N (orange) was docked with LTA4H by iGEMDOCK software (gemdock.life.nctu.edu.tw/dock/igemdock.php). RB3041 (Pink) is a small molecule inhibitor that identifies the active site of LTA4H. The amino acids that potentially interact with P4N are noted. The effects of P4N and bestatin on monocytes and their expression of (B) LTB4, (C) TNF-α, (D) IL-8, or (E) Activin A were determined and shown for different times. All values were expressed as the mean±SEM. **P<0.05, group P4N vs group (P4N+bestatin).
ELISA assays. THP-1 cells (1×10^6 cells/ml/well) in a 24-well culture plate were pretreated with 10 μM bestatin (a LTA4H inhibitor, Sigma-Aldrich) for 2 h and then treated with 3 μM P4N for various time intervals. The levels of LTB4 in the culture media were determined by the LTB4 (Enzo Life Sciences, Farmingdale, N.Y.) (R&D) ELISA Kits. The amount of TNF-α, IL-8 and Activin A in cultured media were measured in a similar manner.

For the next assay, the system named is LTB4 production. Particulars: reference (32); cited from earlier work.

With `Cc1cccc(-c2nn(C(=S)Nc3ccccc3)cc2-c2ccnc3ccccc23)n1` [A83-01], the “BAFF transcription and protein expression” value in the assay on THP-1 cells [1] was “significantly reduced”. In addition, the “proliferative activity of conditioned medium on Raji or OKT3 cells” value (“proliferative activity” below) in the assay on Raji or OKT3 cells is given as “lost its activity”.

Regarding `CC(C)C[C@H](NC(=O)[C@@H](O)[C@H](N)Cc1ccccc1)C(=O)O` [Bestatin], in the assay on THP-1 cells [2], the “P4N-induced expression of Activin A” value is recorded as “inhibited”; the “expression of TNF-α and IL-8” value was “not suppressed”. For `CC(Cc1ccc(O)c(O)c1)C(C)Cc1ccc(O)c(O)c1` (centres unmarked) [NDGA, Nordihydroguaiaretic acid], the LTB4 production result in the assay with LTB4 production is given as “inhibits LTB4 production”. Take `COc1cccc(-c2cc(=O)c3ccccc3o2)c1N` [PD98059]: the “BAFF transcription and protein expression” value with THP-1 cells [1] was “had fewer effects”.

For `C[S+]([O-])c1ccc(-c2nc(-c3ccncc3)c(-c3ccc(F)cc3)[nH]2)cc1` (centres unmarked) [SB203580], the “BAFF transcription and protein expression” value in the assay with THP-1 cells [1] is listed as “had fewer effects”. As to `NC(=O)c1ccc(-c2nc(-c3ccc4c(c3)OCO4)c(-c3ccccn3)[nH]2)cc1` [SB431542], the “BAFF transcription and protein expression” value with THP-1 cells [1] is “significantly reduced”. The “proliferative activity” value in the assay with Raji or OKT3 cells is given as “lost its activity”. With `COc1cc2c(cc1OC)CN(C(=O)/C=C/c1c(-c3ccccc3)n(C)c3ncccc13)CC2` [SIS3], the “BAFF transcription and protein expression” value in the assay on THP-1 cells [1] is “significantly reduced”. Moreover, the “proliferative activity” value in the assay with Raji or OKT3 cells is reported as “lost its activity”.
